The compounds below were run against Induced myeloid leukemia cell differentiation protein Mcl-1 (Homo sapiens) (UniProt Q07820) (assay: Mcl-1/Noxa binding inhibitor potency, dose response, biochemical, TR-FRET (AID 1417)). Conditions: Mcl-1/Noxa peptide interaction, cell-free TR-FRET (terbium/rhodamine), 2 h; measured here: absolute IC50.
Sequence of Induced myeloid leukemia cell differentiation protein Mcl-1 (Homo sapiens) (Q07820 whole entry, looked up): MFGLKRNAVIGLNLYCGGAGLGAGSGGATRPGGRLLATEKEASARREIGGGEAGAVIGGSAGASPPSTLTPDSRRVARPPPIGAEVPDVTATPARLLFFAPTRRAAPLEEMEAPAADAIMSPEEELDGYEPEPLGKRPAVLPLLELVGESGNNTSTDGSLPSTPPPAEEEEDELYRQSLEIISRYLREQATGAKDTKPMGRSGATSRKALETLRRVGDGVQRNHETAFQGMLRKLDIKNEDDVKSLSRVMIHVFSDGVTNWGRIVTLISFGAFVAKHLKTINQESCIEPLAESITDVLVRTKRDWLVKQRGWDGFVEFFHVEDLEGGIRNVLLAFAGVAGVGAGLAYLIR
In the case of `CSc1ccc(/C=N/Nc2cccc(C(=O)O)c2)cc1`, the IC50 is reported as 893 nM.
`CC1=C(C#N)c2nc(N)c(C#N)c(C)c2/C1=C\c1ccc(-c2ccccc2C(=O)O)o1` showed an IC50 of 2980 nM.
For `CC(=O)c1sc2nc(CSc3nnnn3-c3ccccc3)[nH]c(=O)c2c1C`, the IC50 was 930 nM.
`O=C(NN1C(=O)/C(=C/C=C/c2ccco2)SC1=S)c1ccncc1` gave an IC50 of 2230 nM.
`Cc1oc(-c2ccc(Cl)cc2)cc1-c1nn2c(-c3ccoc3C)nnc2s1` was tested, and the IC50 was greater than 54000 nM.
In the case of `COc1cc(/C=C2\SC(=O)N(Cc3ccc(F)cc3)C2=O)cc([N+](=O)[O-])c1O`, the IC50 is reported as 7010 nM.
Compound `O=C(N=Nc1c(O)[nH]c2ccc([N+](=O)[O-])cc12)c1cc(-c2ccccc2Cl)nc2ccccc12` has an IC50 of less than 400 nM.
With `COc1ccc(N2Cc3cccc(C(=O)N4CCN(C(=O)c5ccco5)CC4)c3C2=O)cc1` the IC50 was 1770 nM.
`CN1CCN(c2ccc([N+](=O)[O-])cc2/C=N/NC(=O)c2cccc([N+](=O)[O-])c2)CC1` gave an IC50 of 1420 nM.
`Cc1ccc(C(=O)Nc2ccc(N3CCCC3)cc2)cc1` gave an IC50 greater than 54000 nM.
Compound `CCOC(=O)C1CCCN(c2ccc(NC(=O)c3snc4c(=O)[nH]c(C)nc34)cc2)C1` (stereo not drawn) has an IC50 of 6540 nM.
`COc1ccc(NC(=O)c2ccccc2N(Cc2ccccc2)S(C)(=O)=O)cc1` gave an IC50 greater than 54000 nM.
With `C/C(=N\Nc1cccc(C(=O)O)c1)c1ccc2c(c1)Nc1ccccc1S2` the IC50 was less than 400 nM.
`Cc1ccc(S(=O)(=O)Nc2ccc(N(C)C)cc2)cc1` gave an IC50 greater than 54000 nM.
For `O=C1CC(=O)c2c1cccc2[N+](=O)[O-]`, the IC50 was 2560 nM.
With `O=C(c1ccc2nc(-c3ccco3)c(-c3ccco3)nc2c1)N1CCN(c2ncccn2)CC1` the IC50 was 12600 nM.
In the case of `COc1cc(SC)ccc1C(=O)N1CCN(c2ccccc2)CC1`, the IC50 is reported as greater than 54000 nM.
With `CSc1nc(N(C)CCO)c2sc3nc(-c4ccco4)c4c(c3c2n1)CCC4` the IC50 was less than 400 nM.
Compound `O=C(COC(=O)Cn1cnc2ccccc21)Nc1ccc2c(c1)C(=O)c1ccccc1C2=O` has an IC50 of 2590 nM.
In the case of `CN(C)c1ccc(NC(=O)CN2C(=O)CN=C(c3ccccc3)c3cc(Cl)ccc32)cc1`, the IC50 is reported as greater than 54000 nM.
`O=C(O)c1ccccc1N/N=C/c1cc(Br)cc(Br)c1O` showed an IC50 of 7510 nM.
In the case of `O=C(Nc1cccc(Cl)c1)c1cc(N=Nc2ccc([N+](=O)[O-])cc2Cl)ccc1O`, the IC50 is reported as 1560 nM.
`CCOC(=O)c1c(NC(=O)c2cc(-c3ccc(O)cc3)on2)sc(C(C)=O)c1C` gave an IC50 of 10900 nM.
With `NS(=O)(=O)c1ccc(NC(=S)NC(=O)/C=C/c2ccco2)cc1` the IC50 was 6750 nM.
Work on `O=C(Nc1ccc(N2CCOCC2)cc1)Nc1ccc(Cl)c(Cl)c1` yielded an IC50 greater than 54000 nM.
`COC(=O)c1ccc2nc(Nc3nc4ccc(F)cc4s3)sc2c1` showed an IC50 of 1750 nM.
In the case of `Cc1ccc(S(=O)(=O)/N=C2/C=C(Sc3ncn[nH]3)C(=O)c3ccccc32)cc1`, the IC50 is reported as less than 400 nM.
In the case of `COc1ccc(-c2ccc3c(n2)sc2c(=O)[nH]c(=O)[nH]c23)cc1OC`, the IC50 is reported as less than 400 nM.
`COc1cc(-c2nnc(SCc3cc(=O)oc4cc(O)c(O)cc34)o2)cc(OC)c1OC` was tested, and the IC50 was less than 400 nM.
`O=C(Nc1nc(-c2ccncc2)cs1)c1ccco1` gave an IC50 of 3610 nM.
For `COc1ccc(C(=O)N=c2c(C#N)cc3c(=O)n4cccc(C)c4nc3n2Cc2ccco2)cc1`, the IC50 was 13800 nM.
With `CC1CC1C(=O)OCC(=O)Nc1ccc2[nH]c(=O)[nH]c2c1` (stereo not drawn) the IC50 was 4380 nM.
In the case of `COc1ccc(Cc2nnc(NC(=O)Cc3cccs3)s2)cc1`, the IC50 is reported as less than 400 nM.
With `O/N=C1/CCCSc2ccccc21` the IC50 was greater than 54000 nM.
In the case of `COC(=O)C1=C(C(=O)OC)C(c2cc(Cl)ccc2O)c2sc(=O)[nH]c2S1` (stereo not drawn), the IC50 is reported as 3350 nM.
`CNc1sc(C(=O)c2ccc(F)cc2)c(N)c1-c1nc2ccccc2s1` gave an IC50 of 2090 nM.
Work on `CC(C)Cn1c(N)c(C(=O)COC(=O)c2cc(-c3ccco3)nc3ccccc23)c(=O)n(C)c1=O` yielded an IC50 of 1450 nM.
Compound `C=C(C)C(=O)Nc1cccc(C2=NOC3(C2)C[C@@H](C(N)=O)N(C(=O)c2ccc(Cl)cc2)C3)c1` (stereo partly drawn) has an IC50 of less than 400 nM.
In the case of `COc1cc(/C=N/NC(=O)C2c3ccccc3Oc3ccccc32)ccc1O`, the IC50 is reported as 6680 nM.
`COC(=O)c1cc(O)cc(OC)c1Oc1cc(C)cc(O)c1C(=O)O` gave an IC50 greater than 54000 nM.
`Cc1ccc(N2NC(=O)/C(=C\c3cc4c(cc3[N+](=O)[O-])OCO4)C2=O)cc1C` showed an IC50 of 4920 nM.
For `O=C(O)CC(CCc1ccccc1)OC1OC(CO)C(O)C(O)C1O` (stereo not drawn), the IC50 was less than 400 nM.
Work on `CSc1nc(SCCO)c2sc3nc(-c4ccco4)c4c(c3c2n1)CC(C)(C)OC4` yielded an IC50 of less than 400 nM.
In the case of `COc1ccc2c3c(cccc13)N(C)N=C2C`, the IC50 is reported as 931 nM.
Work on `C=CCOC(=O)c1cc(-c2ccc(/C=C3\C(=O)NC(=O)C(C#N)=C3C)o2)ccc1Cl` yielded an IC50 of less than 400 nM.
Compound `CCNc1nc(NCC)nc(C(=O)NN)n1` has an IC50 of less than 400 nM.
Work on `CN(C)S(=O)(=O)c1cccc(NC(=S)N/N=C/c2ccc(O)c(O)c2O)c1` yielded an IC50 of less than 400 nM.
In the case of `CS(=O)(=O)C1=NSC2=NC(=O)/C(=C\c3cccn3-c3ccccc3Cl)C(=N)N21`, the IC50 is reported as 5590 nM.
`O=C(O)c1ccc(NC2=C/C(=N/S(=O)(=O)c3ccccc3)c3ccccc3C2=O)cc1` showed an IC50 of less than 400 nM.
For `CN1c2ccccc2N(C)C1(C)c1ccccc1`, the IC50 was 1120 nM.
Compound `COC(=O)c1cc(-c2ccc(C)o2)nc2ccccc12` has an IC50 of 14800 nM.
`O=[N+]([O-])c1cc(S(=O)(=O)c2ccc(O)c([N+](=O)[O-])c2)ccc1O` gave an IC50 of 846 nM.
`CC(=O)Nc1sc(N/N=C\c2ccco2)nc1-c1cccs1` was tested, and the IC50 was 10600 nM.

Source: PubChem BioAssay AID1417 (Emory University Molecular Libraries Screening Center, 2008)
